Key:
Test in all cases: Growth inhibition of transformed PPO-deficient E. coli BT3(ΔPPO) on LB agar medium
Mutant AtPPO1 = molecular target: T1, Mutant AtPPO1 (Arabidopsis thaliana, UniProt P55826, S305L/Y426M); type: cell-based; conditions: 37° C., 16~20 hours
T1 construct: expressed in transfected cells; host or cells: E. coli BT3(ΔPPO), pACBB vector
Description: (§1) To test herbicide resistance of CyPPO2, CyPPO4, CyPPO8 and CyPPO12 isolated in Example 1, PPO-deficient BT3 E. coli [hereinafter, referred to as BT3(ΔPPO)] was transformed with CyPPO2, CyPPO4, CyPPO8 or CyPPO12 gene, respectively and then cultured in the presence of herbicides to examine growth inhibition of the transformed E. coli. As a negative control, Arabidopsis thaliana-derived wild-type PPO (wild-type AtPPO1) was used, and wild-type AtPPO1 has sensitivity to PPO-based herbicides and its sequence information is available in GeneBank accession no. AX084732 (a nucleotide sequence of the gene is represented by SEQ ID NO: 10, and an amino acid sequence thereof is represented by SEQ ID NO: 9). As a positive control, Mutant AtPPO1 was used, in which amino acid replacements of Y426M (replacement of tyrosine by methionine at position 426) and S305L (replacement of serine by leucine at position 305) occur in the amino acid sequence of the wild-type AtPPO1 (an amino acid sequence is represented by SEQ ID NO: 11) (Li X, Volrath S L., N D B. G., Chilcott C E, Johnson M A, Ward E R, Law M D (2003) Development of protoporphyrinogen oxidase as an efficient selection marker for Agrobacterium tumefaciens-mediated transformation of maize. Plant physiology 133:736-747).
(§2) BT3(ΔPPO) strain was provided by Hokkaido University (Japan) and it is an E. coli strain which is deficient in hemG-type PPO and has Kanamycin resistance (Watanabe et al., (2001) Dual targeting of spinach protoporphyrinogen oxidase II to mitochondria and chloroplasts by alternative use of two in-frame […] codons. JBC 2047420481).
(§3) HVE-50 autoclave from Hirayama, HS2100A electronic scale from Hansung Instrument, CB-30V clean bench from Jeio Tech, JSI-200CL incubator from JSR, 1210 type UV-visible spectrophotometer from Thermo Fisher Scientific, MQ-200 photometer from Apogee, and Bio-Rad MyCycler as PCR machine were used. The autoclave was used under conditions of 121° C. and 15 minutes, and the incubator was used at 37° C. with lighting of 160˜200 μmol m^−2 s^−1 for a culture time of 14˜20 hours. LB medium (10 g/L of Bacto-Tryptone, 5 g/L of Yeast extract, 10 g/L of sodium chloride, 15 g/L of Bacto agar) and an antibiotic Chloramphenicol (Duchefa) were used.
(§4) To clone each of the CyPPO2, CyPPO4, CyPPO8 and CyPPO12 genes isolated and amplified in Example 1 into pACBB (its structure is shown in FIG. 2), 10 μl of a solution containing 4 μl of each PPO gene, […], 1 μl of 10× buffer A, 1 μl of 10× buffer B, 1 μl of ligase (RBC, 3 unit/μl) was prepared and allowed to react at 22° C. for 30 minutes. The reaction solution was added to 100 μl of DH5 alpha competent cells, and allowed to react on ice for 20 minutes and then left at 42° C. for 40 seconds. Thereafter, the cells were left on ice for 2 minutes, and then 1 ml of LB broth was added thereto, followed by incubation with shaking at 37° C. for 1 hour. The strains having each gene insert in the culture medium were harvested, and then cultured on LB agar medium containing chloramphenicol.
(§5) For seed culture of E. coli transformed with respective genes, single colonies thereof were cultured in 3 ml of LB broth containing chloramphenicol overnight, and each 100 μl thereof was sub-cultured in 3 ml of fresh LB broth until absorbance (OD600) reached 0.5˜1. They were diluted with LB broth to absorbance (OD600) of 0.5. 10-fold dilution of this diluted solution was performed with LB broth five times. Next, 10 μl of the diluted solution of the transformed E. coli culture was dropped on LB agar medium (petri dish) containing chloramphenicol and a variety of herbicide stocks at different concentrations (0˜400 μM). The LB agar plates were incubated at 37° C. At 16˜20 hours after culture, growth inhibition was examined with the naked eye. Further, growth inhibition of the strains cultured in a medium containing Tiafenacil was examined under light (lighting of 169 μmol m^−2s^−1) and dark conditions.

CyPPO8 = type: cell-based, Halothece sp. PCC 7418; conditions: 37° C., 16~20 hours
Description: as §1, §2, §3, §4, §5

CyPPO12 = type: cell-based, Microcoleus vaginatus; conditions: 37° C., 16~20 hours
Description: as §1, §2, §3, §4, §5

CyPPO4 = type: cell-based, Lyngbya sp. PCC 8106; conditions: 37° C., 16~20 hours
Description: as §1, §2, §3, §4, §5

wild-type AtPPO1 = molecular target: T2, wild-type AtPPO1 (Arabidopsis thaliana, UniProt P55826); type: cell-based
T2 construct: expressed in transfected cells; host or cells: E. coli BT3(ΔPPO), pACBB vector
T2 sequence (P55826 35-537): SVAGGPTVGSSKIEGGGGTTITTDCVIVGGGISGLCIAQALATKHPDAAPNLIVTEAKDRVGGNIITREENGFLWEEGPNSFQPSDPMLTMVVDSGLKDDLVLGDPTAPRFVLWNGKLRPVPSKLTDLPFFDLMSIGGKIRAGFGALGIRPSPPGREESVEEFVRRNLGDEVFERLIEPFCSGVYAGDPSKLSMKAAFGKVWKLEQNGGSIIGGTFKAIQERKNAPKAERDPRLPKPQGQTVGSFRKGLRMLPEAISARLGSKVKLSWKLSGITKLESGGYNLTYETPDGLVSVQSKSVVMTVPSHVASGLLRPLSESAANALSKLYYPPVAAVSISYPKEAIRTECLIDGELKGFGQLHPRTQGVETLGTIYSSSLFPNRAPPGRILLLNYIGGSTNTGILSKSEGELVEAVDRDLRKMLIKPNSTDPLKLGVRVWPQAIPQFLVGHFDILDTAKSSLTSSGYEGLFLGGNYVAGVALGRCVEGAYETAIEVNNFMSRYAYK
Description: as §1, §2, §3, §4, §5

[1] = LB agar medium, 37° C., 16~20 hours

T1 sequence (P55826 35-537 S305L/Y426M): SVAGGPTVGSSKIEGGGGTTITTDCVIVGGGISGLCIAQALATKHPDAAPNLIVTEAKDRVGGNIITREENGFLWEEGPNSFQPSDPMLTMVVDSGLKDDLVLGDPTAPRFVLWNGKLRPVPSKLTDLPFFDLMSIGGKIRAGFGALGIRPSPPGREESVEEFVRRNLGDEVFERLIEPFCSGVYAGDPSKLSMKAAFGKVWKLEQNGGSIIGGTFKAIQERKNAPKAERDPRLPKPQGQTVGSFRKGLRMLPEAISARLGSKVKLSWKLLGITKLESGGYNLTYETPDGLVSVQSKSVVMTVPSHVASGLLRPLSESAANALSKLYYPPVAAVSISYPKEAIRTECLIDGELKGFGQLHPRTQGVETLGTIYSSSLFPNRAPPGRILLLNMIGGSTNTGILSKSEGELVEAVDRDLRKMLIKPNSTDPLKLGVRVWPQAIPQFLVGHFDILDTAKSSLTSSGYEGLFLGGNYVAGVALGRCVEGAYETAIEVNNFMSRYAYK

| SMILES | concentration at which growth inhibition was not / hardly observed (Mutant AtPPO1) [µM] | concentration at which growth inhibition was hardly observed (CyPPO8) [µM] | concentration at which growth inhibition was not / hardly observed (CyPPO12) [µM] | concentration at which growth inhibition was hardly observed (CyPPO4) [µM] | other results |
| --- | --- | --- | --- | --- | --- |
| CC(C)=C1OC(=O)N(c2cc(OC3CCCC3)c(Cl)cc2F)C1=O [Pentoxazone] | 25 | 400 | 25 | – | – |
| O=C(O)c1cc(Oc2ccc(C(F)(F)F)cc2Cl)ccc1[N+](=O)[O-] [Acifluorfen] | – | 400 | – | 400 | – |
| CC(C)Oc1cc(-n2nc(C(C)(C)C)oc2=O)c(Cl)cc1Cl [Oxadiazon] | 25 | 400 | 25 | – | concentration at which growth inhibition began (wild-type AtPPO1; [1]): 0.5 µM |
| C#CCN1C(=O)COc2cc(F)c(N3C(=O)C4=C(CCCC4)C3=O)cc21 [Flumioxazin] | – | 25 | 25 | 25 | – |
| CS(=O)(=O)NC(=O)c1cc(Oc2ccc(C(F)(F)F)cc2Cl)ccc1[N+](=O)[O-] [Fomesafen] | ≤ 25 | 400 | – | 400 | concentration at which growth inhibition was observed (wild-type AtPPO1; [1]): 5 µM |
| CC(C)N(C)S(=O)(=O)NC(=O)c1cc(-n2c(=O)cc(C(F)(F)F)n(C)c2=O)c(F)cc1Cl [Saflufenacil] | 25 | 25 | 25 | 25 | – |
| C#CCN(C)c1c(C#N)cnn1-c1nn2c(c1Cl)CCCC2 [Pyraclonil] | 25 | 400 | 25 | – | concentration at which the strain hardly grew (wild-type AtPPO1; [1]): 25 µM |
| Cc1nn(-c2cc(NS(C)(=O)=O)c(Cl)cc2Cl)c(=O)n1C(F)F [Sulfentrazone] | 25 | 400 | 25 | 400 | concentration at which growth inhibition began (wild-type AtPPO1; [1]): 0.5 µM |
| COC(=O)CSc1cc(/N=c2\sc(=O)n3n2CCCC3)c(F)cc1Cl [Fluthiacet-methyl] | – | 400 | – | – | – |
| CCOc1cc(Oc2ccc(C(F)(F)F)cc2Cl)ccc1[N+](=O)[O-] [Oxyfluorfen] | – | 400 | – | 400 | concentration at which growth inhibition began (Mutant AtPPO1): 5 µM |
| CCOC(=O)COc1cc(-c2nn(C)c(OC(F)F)c2Cl)c(F)cc1Cl [Pyraflufen-ethyl] | 25 | 400 | 25 | – | concentration at which growth inhibition began (wild-type AtPPO1; [1]): 0.5 µM |
| COC(=O)CCNC(=O)C(C)Sc1cc(-n2c(=O)cc(C(F)(F)F)n(C)c2=O)c(F)cc1Cl (stereo not shown) [Tiafenacil] | 25 | 25 | 25 | 25 | growth at 1 μM under dark condition (wild-type AtPPO1; agar medium, 1 μM, dark condition): rather maintained; concentration at which growth was completely inhibited (wild-type AtPPO1; agar medium, both light and dark conditions): ≥ 5 µM; concentration at which growth was almost completely inhibited (wild-type AtPPO1; agar medium, light condition): 1 µM |
| C=CCOC(=O)C(C)(C)OC(=O)c1cc(-n2c(=O)cc(C(F)(F)F)n(C)c2=O)ccc1Cl [Butafenacil] | 25 | 25 | – | – | – |

From patent US11130960B2, “Methods for conferring or enhancing herbicide resistance on plants and/or alga with protoporphyrinogen oxidase variants” (FARM HANNONG CO., LTD., priority 2014, dated 2021)
